According to US8772495B2, “5-lipoxygenase-activating protein inhibitor” (Panmira Pharmaceuticals, LLC, priority 2008, dated 2014):
Where “and” joins values, the source holds several entries; their conditions need not be identical. Identical values can stand only once. Marks after values point to notes of the source that are not given here.

Tests used:
[1] = tested on: LTB4 in Rat Whole Blood; test: Rat whole blood LTB4 inhibition assay; format: cell-based; settings: individual tests 1-5
[2] = tested on: whole blood ionophore-stimulated leukotriene LTB4; test: Phase I study: ex vivo ionophore-stimulated LTB4; format: in vivo, human
Text: Study Design: Single center, double-blind, randomized, placebo-controlled, single ascending dose followed by multiple ascending dose study.
Sample Size: (1) Single Dose Phase: eight (8) subjects (6 active, 2 placebo) per dose level; up to 5 dose levels are planned (a total of 40 subjects if all 5 dose levels are completed); and (2) Multiple Dose Phase: eight (8) subjects (6 active, 2 placebo) per dose level; up to 4 dose levels are planned (a total of 32 subjects if all 4 dose levels are completed).
Formulations: Compound 2 was supplied as an oral powder for reconstitution. Placebo solution matched. […] The placebo differed only in the absence of the active.
The following dosing cohorts were used:
Routes of Administration: All doses were administered orally with approximately 100 mL of water rinse. Subjects were fasted for at least 8 hours prior to dosing and for 2 hours after dosing. For BID dosing in the Multiple Dose Phase, when applicable, subjects were fasted for at least 2 hours prior to the second daily dose.
Plasma concentrations of Compound 1 were determined using a validated LC/MS method. Whole blood ionophore-stimulated leukotriene LTB4 and urinary LTE4 production were assayed by ELISA and mass spectrometry, respectively.
Analysis of Samples: Concentrations of Compound 1 was determined in plasma samples collected from subjects. Similarly, concentrations of LTB4 in plasma and urinary LTE4 were determined in blood and urine samples collected.

[3] = Oral administration of liquid formulations to rats; set-up: species or system male Spargue-Dawley rats; settings: Sprague-Dawley, rat, in vivo, solutions of Table 19, male rats
[4] = Thermodynamic aqueous solubility by HPLC; format: physicochemical; settings: water
Method: The suspension was equilibrated at 25° C. for 24 hours then the pH was measured. The suspension was then filtered through a glass fibre C filter into a 96 well plate. […] Quantitation was by HPLC with reference to a standard solution of approximately 0.1 mg.ml^−1 in DMSO. Different volumes of the standard, diluted and undiluted sample solutions were injected.
Analysis was performed on an Agilent HP1100 series system equipped with a diode array detector and using ChemStation software vB.02.01-SR1.

[5] = target: human FLAP (Homo sapiens (Human), UniProt P20292); test: FLAP binding assay (membrane radioligand binding); settings: read-out: IC50, inhibition of FLAP radioligand binding; individual tests 1-8
Sequence of human FLAP (P20292 whole entry): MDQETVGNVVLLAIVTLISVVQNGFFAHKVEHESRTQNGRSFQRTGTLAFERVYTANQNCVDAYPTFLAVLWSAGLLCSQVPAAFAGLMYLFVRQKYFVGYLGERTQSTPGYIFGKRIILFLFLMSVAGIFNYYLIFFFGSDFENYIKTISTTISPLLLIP

[6] = target: CYP2C9 (Homo sapiens (Human), UniProt P11712); test: Cellular cytochrome P450 induction in cryopreserved human hepatocytes; settings: tested at 10 μM, diclofenac substrate
Sequence of CYP2C9 (P11712 whole entry, looked up): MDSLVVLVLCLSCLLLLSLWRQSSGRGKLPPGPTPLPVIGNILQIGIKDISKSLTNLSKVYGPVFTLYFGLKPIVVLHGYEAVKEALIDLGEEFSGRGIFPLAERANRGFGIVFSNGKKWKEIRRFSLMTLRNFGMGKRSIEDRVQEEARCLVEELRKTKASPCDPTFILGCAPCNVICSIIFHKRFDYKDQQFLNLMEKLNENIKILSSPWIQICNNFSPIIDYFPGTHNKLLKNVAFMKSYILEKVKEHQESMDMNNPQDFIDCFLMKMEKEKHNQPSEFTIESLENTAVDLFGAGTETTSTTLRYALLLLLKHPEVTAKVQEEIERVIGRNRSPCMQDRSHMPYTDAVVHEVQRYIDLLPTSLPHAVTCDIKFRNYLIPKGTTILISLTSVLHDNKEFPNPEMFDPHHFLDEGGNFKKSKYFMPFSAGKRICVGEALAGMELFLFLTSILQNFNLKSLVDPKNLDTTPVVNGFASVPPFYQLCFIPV

[7] = Liquid formulations for oral solutions/suspensions; format: physicochemical
Method: Values of pH reported were estimated based on pH indicating strips. […] Accordingly, provided in certain embodiments herein were formulations having a pH above about 9, above about 10 or of about 10. In certain embodiments, the formulation was buffered at a pH of about 10. All formulations prepared were sonicated for about 10 minutes.

[8] = target: T1, CYP3A4 (Homo sapiens (Human), UniProt P08684); test: Cellular cytochrome P450 induction in cryopreserved human hepatocytes; settings: tested at 10 μM, midazolam substrate
T1 sequence (P08684 whole entry, looked up): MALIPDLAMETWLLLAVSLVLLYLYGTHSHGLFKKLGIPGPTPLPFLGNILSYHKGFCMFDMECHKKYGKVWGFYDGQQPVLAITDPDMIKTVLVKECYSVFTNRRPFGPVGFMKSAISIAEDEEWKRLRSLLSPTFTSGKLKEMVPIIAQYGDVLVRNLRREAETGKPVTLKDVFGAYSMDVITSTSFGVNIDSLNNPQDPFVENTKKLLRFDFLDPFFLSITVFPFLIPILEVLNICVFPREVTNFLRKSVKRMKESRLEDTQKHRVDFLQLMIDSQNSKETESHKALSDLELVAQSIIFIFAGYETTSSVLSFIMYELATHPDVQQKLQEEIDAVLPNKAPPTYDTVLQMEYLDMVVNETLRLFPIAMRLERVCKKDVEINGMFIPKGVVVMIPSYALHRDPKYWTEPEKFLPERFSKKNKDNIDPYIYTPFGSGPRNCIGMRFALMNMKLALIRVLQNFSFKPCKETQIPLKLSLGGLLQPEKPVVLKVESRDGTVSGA

[9] = tested on: LTB4 in Human Whole Blood; test: Human blood LTB4 inhibition assay; format: cell-based; settings: individual tests 1-8
Method: A non-limiting example of such a human blood LTB4 inhibition assay is as follows: Blood was drawn from consenting human volunteers into heparinized tubes and 125 μL aliquots added to wells containing 2.5 μL 50% dimethylsulfoxide (vehicle) or 2.5 μL drug in 50% dimethylsulfoxide. Samples were incubated for 15 minutes at 37° C. 2 μL calcium ionophore A23817 (from a 50 mM dimethylsulfoxide stock diluted just prior to the assay in Hanks balanced salt solution (Invitrogen)) to 1.25 mM) was added, solutions mixed and incubated for 30 minutes at 37° C. Samples were centrifuged at 1,000 rpm (˜200×g) for 10 minutes at 4° C., plasma removed and a 1:100 dilution assayed for LTB4 concentration using ELISA (Assay Designs). Drug concentrations to achieve 50% inhibition (IC50's) of vehicle LTB4 were determined by nonlinear regression (Graphpad Prism) of % inhibition versus log drug concentration.

[10] = target: CYP2D6 (Homo sapiens (Human), UniProt P10635); test: Extracellular cytochrome P450 inhibition (microsomes); format: in vitro ADME; settings: concentrations up to and exceeding 40 μM
Sequence of CYP2D6 (P10635 whole entry): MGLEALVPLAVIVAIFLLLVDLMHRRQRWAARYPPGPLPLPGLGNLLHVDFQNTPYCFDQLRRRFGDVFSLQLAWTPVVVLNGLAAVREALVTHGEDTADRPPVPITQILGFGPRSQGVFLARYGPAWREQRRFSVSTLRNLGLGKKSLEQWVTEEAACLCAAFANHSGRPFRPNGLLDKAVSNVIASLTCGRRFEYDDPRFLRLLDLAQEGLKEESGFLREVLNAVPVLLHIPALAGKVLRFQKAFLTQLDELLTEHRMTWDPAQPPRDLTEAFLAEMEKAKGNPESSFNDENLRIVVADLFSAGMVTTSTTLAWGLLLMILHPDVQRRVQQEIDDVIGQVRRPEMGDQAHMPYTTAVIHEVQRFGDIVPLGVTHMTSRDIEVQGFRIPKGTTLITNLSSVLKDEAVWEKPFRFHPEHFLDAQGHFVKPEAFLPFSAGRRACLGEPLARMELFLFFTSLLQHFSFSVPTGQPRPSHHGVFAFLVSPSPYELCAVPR

[11] = Plasma binding (equilibrium dialysis); format: in vitro ADME, Monkey (cynomologus); settings: monkey plasma, read-out: % Bound (converted)
Method: Experiments were performed using equilibrium dialysis.

[12] = target: T1, CYP3A4; test: Extracellular cytochrome P450 inhibition (microsomes); format: in vitro ADME; settings: concentrations up to and exceeding 40 μM
[13] = target: CYP1A2 (Homo sapiens (Human), UniProt P05177); test: as above; format: in vitro ADME; settings: concentrations up to and exceeding 40 μM
Sequence of CYP1A2 (P05177 whole entry): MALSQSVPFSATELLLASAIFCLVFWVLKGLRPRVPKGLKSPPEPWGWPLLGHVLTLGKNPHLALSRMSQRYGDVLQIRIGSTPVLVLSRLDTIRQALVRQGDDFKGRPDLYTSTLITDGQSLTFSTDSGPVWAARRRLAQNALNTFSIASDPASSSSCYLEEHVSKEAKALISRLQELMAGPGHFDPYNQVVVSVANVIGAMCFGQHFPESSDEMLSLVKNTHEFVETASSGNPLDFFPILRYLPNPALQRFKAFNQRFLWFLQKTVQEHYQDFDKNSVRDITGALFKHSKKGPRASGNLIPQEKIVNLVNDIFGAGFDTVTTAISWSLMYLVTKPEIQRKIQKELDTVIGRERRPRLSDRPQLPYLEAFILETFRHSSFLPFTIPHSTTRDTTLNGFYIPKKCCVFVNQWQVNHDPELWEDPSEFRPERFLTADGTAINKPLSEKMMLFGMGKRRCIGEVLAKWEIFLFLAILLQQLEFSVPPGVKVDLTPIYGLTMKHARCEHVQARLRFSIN
Method: Aliquots of this mixture (89 μL) were delivered to each well of a 96-well polypropylene plate which contained an aliquot of inhibitor (1 μL). Final solvent concentrations were 1% (v/v) or less. Incubations were commenced with the addition of 10 μL β-NADPH (10 mM stock) to a final volume of 100 μL. […] Samples were centrifuged, and supernatant was transferred for LC-MS analysis.

IC50 [1]: 302 nM and 160 nM and 380 nM and 212 nM and 141 nM
Tmax [3]: ≤ 2 h
pH of unfiltered saturated solution ([4]; 25° C.): above 9
solubility at 24 h ([4]; 25 °C, thermodynamic from solid, both batches): > 10000 µg/mL
IC50 [5]: 2.8 nM and 2.2 nM
CYP2C9 induction [6]: No apparent induction
Results (appearance of formulation) ([7]; 0.010 M sodium carbonate buffer, 1% v/v Lutrol and 0.05% splenda, pH 10, ~10 mg/mL): Clear solution
Results (appearance of formulation) ([7]; 0.010 M sodium carbonate buffer, 2% v/v ethanol and 0.05% splenda, pH 10, 10 mg/mL): Clear solution
Results (appearance of formulation) ([7]; 0.010 M sodium carbonate buffer, 5% v/v Ethanol and 0.05% splenda, pH 10, ~10 mg/mL): Some undissolved solid
Results (appearance of formulation) ([7]; 0.010 M sodium carbonate buffer, 5% v/v Simple syrup, pH 10, 10 mg/mL): Some undissolved solid
Results (appearance of formulation) ([7]; 0.010 M sodium carbonate buffer, pH 10, 10 mg/mL): Clear solution
Results (appearance of formulation) ([7]; 0.5% Methylcellulose, 3.33 mg/mL): Suspension
CYP3A4 induction [8]: No apparent induction
IC50 [9]: 552 nM and 645 nM and 563 nM and 410 nM and 642 nM and 482 nM and 310 nM and 444 nM
IC90 [9]: 3440 nM and 1220 nM and 1550 nM and 810 nM and 1050 nM and 790 nM and 360 nM and 1240 nM
apparent inhibition [10]: No apparent inhibition
fraction unbound at 10 μM [11]: 0.003
apparent inhibition [12]: No apparent inhibition
apparent inhibition [13]: No apparent inhibition
Structure (SMILES): CCOc1ccc(-c2ccc(Cn3c(CC(C)(C)C(=O)[O-])c(SC(C)(C)C)c4cc(OCc5ccc(C)cn5)ccc43)cc2)cn1.[Na+] [Compound 2, sodium 3-[3-(tert-butylsulfanyl)-1-[4-(6-ethoxy-pyridin-3-yl)benzyl]-5-(5-methyl-pyridin-2-yl-methoxy)-1H-indol-2-yl]-2,2-dimethylpropionate]
tE>50% (time above 50% LTB4 inhibition) ([2]; multiple dose 10 mg, Day 1): 17.5 h
tE>90% (time above 90% LTB4 inhibition) ([2]; multiple dose 10 mg, Day 1): 0.0 h
tE>50% (time above 50% LTB4 inhibition) ([2]; multiple dose 10 mg, Day 11): 27.4 h
tE>90% (time above 90% LTB4 inhibition) ([2]; multiple dose 10 mg, Day 11): 0.0 h
tE>50% (time above 50% LTB4 inhibition) ([2]; multiple dose 50 mg, Day 1): >23.3 h
tE>90% (time above 90% LTB4 inhibition) ([2]; multiple dose 50 mg, Day 1): 0.0 h
tE>50% (time above 50% LTB4 inhibition) ([2]; multiple dose 50 mg, Day 11): 42.4 h
tE>90% (time above 90% LTB4 inhibition) ([2]; multiple dose 50 mg, Day 11): 10.0 h
tE>50% (time above 50% LTB4 inhibition) ([2]; multiple dose 150 mg, Day 1): >23.4 h
tE>90% (time above 90% LTB4 inhibition) ([2]; multiple dose 150 mg, Day 1): 15.1 h
tE>50% (time above 50% LTB4 inhibition) ([2]; multiple dose 150 mg, Day 11): >72.0 h
tE>90% (time above 90% LTB4 inhibition) ([2]; multiple dose 150 mg, Day 11): 52.4 h
tE>50% (time above 50% LTB4 inhibition) ([2]; multiple dose 450 mg, Day 1): >23.7 h
tE>90% (time above 90% LTB4 inhibition) ([2]; multiple dose 450 mg, Day 1): 17.4 h
tE>50% (time above 50% LTB4 inhibition) ([2]; multiple dose 450 mg, Day 11): >72.0 h
tE>90% (time above 90% LTB4 inhibition) ([2]; multiple dose 450 mg, Day 11): 50.4 h
LTB4 level at t = 24 hrs. ([2]; single dose 50 mg): 37 ± 4.7 % of baseline
tE>50% (time above 50% LTB4 inhibition) ([2]; single dose 50 mg, Day 1): 32.2 h
tE>90% (time above 90% LTB4 inhibition) ([2]; single dose 50 mg, Day 1): 0.0 h
LTB4 level at t = 24 hrs. ([2]; single dose 150 mg): 24 ± 4.4 % of baseline
tE>50% (time above 50% LTB4 inhibition) ([2]; single dose 150 mg, Day 1): 41.9 h
tE>90% (time above 90% LTB4 inhibition) ([2]; single dose 150 mg, Day 1): 14.2 h
LTB4 level at t = 24 hrs. ([2]; single dose 300 mg): 23 ± 8.3 % of baseline
tE>90% (time above 90% LTB4 inhibition) ([2]; single dose 300 mg, Day 1): 16.1 h
tE>50% (time above 50% LTB4 inhibition) ([2]; single dose 300 mg, Day 1, estimated): 30^# h
LTB4 level at t = 24 hrs. ([2]; single dose 600 mg): 1.6 ± 0.98 % of baseline
tE>50% (time above 50% LTB4 inhibition) ([2]; single dose 600 mg, Day 1): >71.7 h
tE>90% (time above 90% LTB4 inhibition) ([2]; single dose 600 mg, Day 1): 67.2 h
LTB4 level at t = 24 hrs. ([2]; single dose 1000 mg): 1.9 ± 0.41 % of baseline
tE>50% (time above 50% LTB4 inhibition) ([2]; single dose 1000 mg, Day 1): >71.7 h
tE>90% (time above 90% LTB4 inhibition) ([2]; single dose 1000 mg, Day 1): 42.6 h
